Source: patent US20240352013A1, “BICYCLIC FUSED PYRAZOLE DERIVATIVES FOR THE TREATMENT OF RESPIRATORY INFECTIONS INCLUDING RSV” (GEORGIA STATE UNIVERSITY RESEARCH FOUNDATION, INC., priority 2021, published 2024)
Where two headings read alike, the source gives them in different places.

Experiments:
[1] = Cytotoxicity assay (PrestoBlue) in HEp-2 cells; assay type: cell-based, human; conditions: human; HEp-2 cells, 48-hour incubation; max concentration tested
Protocol: (§1) To determine the effect of compound on cell metabolism, HEp-2 cells were seeded at 50% confluence in 96-well plates and were incubated with 3-fold serial dilution of compound from 5 or 50 μM as described, including positive and negative controls for normalization. After 48-hour incubation at 37° C., cells were incubated with PrestoBlue (ThermoFisher Scientific) for 1 hour at 37° C. and fluorescence measured with a H1 synergy plate reader (Biotek).
(§2) After 48-hour incubation at 37° C., cells were incubated with PrestoBlue (ThermoFisher Scientific, cat #A-13262) for 1 h at 37° C. and fluorescence measured with a H1 synergy plate reader (BioTek).

HEp-2 cells = assay: Cytotoxicity assay (PrestoBlue) in HEp-2 cells; assay type: cell-based, human; conditions: for cytotoxicity: FIG. 24; for CC50: HEp-2 cells, 48-hour incubation, max concentration tested
Protocol: as §1, §2

recRSV-fireSMASh [2] = assay: microbe, parasite or virus in culture; assay type: cell-based; conditions: human respiratory syncytial virus, HAE, read-out: “F1” HAE C50 (first)
recRSV-fireSMASh [3] = assay: microbe, parasite or virus in culture; assay type: cell-based; conditions: human respiratory syncytial virus, HAE, read-out: “M4” HAE C50 (first)
recRSV-fireSMASh L1502Q = assay: microbe, parasite or virus in culture; assay type: cell-based; conditions: human respiratory syncytial virus; recombinant recRSV-fireSMASh, HEp-2, RSV L L1502Q
recRSV-fireSMASh Y1631H = assay: microbe, parasite or virus in culture; assay type: cell-based; conditions: human respiratory syncytial virus; recombinant recRSV-fireSMASh, HEp-2, RSV L Y1631H
recRSV-fireSMASh H1632Q = assay: microbe, parasite or virus in culture; assay type: cell-based; conditions: human respiratory syncytial virus; recombinant recRSV-fireSMASh, HEp-2, RSV L H1632Q
[4] = system: recRSV-mKate harboring L1502Q; assay type: cell-based; conditions: recRSV with LL1502Q relative to L WT
recRSV-mKate [5] = assay: microbe, parasite or virus in culture; assay type: cell-based; conditions: 3D-HAE, progeny virus titers six days after infection, read-out: half-maximal effective concentration (EC50)
“F1” HAE = conditions: “F1” donor primary HAE cells
“M4” HAE = conditions: “M4” donor primary HAE cells
[6] = 100 μM, previous studies; cited from earlier work
recRSV-A2line19F-[mKate] = assay: In vivo efficacy in RSV-infected mice (lung viral titer); conditions: for in vivo lung titer reduction in RSV-infected mice: oral gavage twice daily from 10 h post-infection, lungs 4.5 days after infection; for Lung viral load reduction (log10 TCID50/ml) relative to vehicle-treated: 50 mg/kg bid, therapeutic treatment 10 hours after infection, 4.5 days post-infection
Protocol: For efficacy studies, mice were randomly divided into groups (n=5) and infected intranasally with 5×10^5 TCID50 (25 μl per nare) of recRSV-A2line19F-[mKate] in PBS while under anesthesia with ketamine/xylazine. Treatment (compound or vehicle) was administrated at 10 h post-infection via oral gavage in a 200 μl suspension of 1% methylcellulose and administrated twice daily. Temperature and food consumption were monitored daily, body weight was determined twice daily. All animals were euthanized at 4.5 days after infection and lungs were harvested. To determine lung viral titers, lungs were weighted and homogenized with a bead beater in 300 μl PBS in 3 bursts of 20 seconds by 5-minute rest on ice after each cycle. Samples were clarified for 5 minutes at 4° C. and 20,000×g, supernatant aliquoted and stored at −80° C. before being titrated by median tissue culture infectious dose (TCID50) normalized per gram of lung tissue and per ml of lysate. RSV viral titers were determined using standard 50% tissue infective dose (TCID50) assay in HEp-2 cells and 96 well plates, with a Spearman and Karber based method using fluorescence for detection.
Mice were divided randomly into groups of 5, and infected intranasally with 500,000 TCID50 (25 μl/nare) of recRSV-mKate in Phosphate-Buffered Saline. Mice were anesthetized with ketamine/xylazine. Treatments were administrated via oral gavage in a 200 μl suspension of 1% Methylcellulose in water. Temperature and body weight were determined on a daily and twice-daily basis, respectively. Efficacy studies were terminated at peak viral replication at 4.5 days post-infection, mice were euthanized and lungs harvested and weighted. Lung viral titers were determined after tissue homogenization with a bead beater with 300 μl PBS (3 bursts of 30 seconds at 4° C., separated by 30-second rest at 4° C.). Homogenates were clarified (5 minutes at 4° C. and 20,000×g), aliquoted and stored at −80° C. until titration. Viral titers were determined by median tissue culture infectious dose (TCID50) titration, adjusted to weight (g) of lung tissue.

recRSV-mKate [7] = assay: Lung histopathology of RSV-infected mice; conditions: 50 mg/kg initiated 12 hours after infection
Protocol: Mice were divided randomly into groups of 5, and infected intranasally with 500,000 TCID50 (25 μl/nare) of recRSV-mKate in Phosphate-Buffered Saline. Mice were anesthetized with ketamine/xylazine. Treatments were administrated via oral gavage in a 200 μl suspension of 1% Methylcellulose in water. Temperature and body weight were determined on a daily and twice-daily basis, respectively. Efficacy studies were terminated at peak viral replication at 4.5 days post-infection, mice were euthanized and lungs harvested and weighted.
For histopathology, mice were subjected to cervical dislocation 4.5 days after infection and lungs perfused with 10% NBF prior to extraction. Lungs were stored in 10% NBF for 24 hours, followed by incubation in 70% EtOH for two days and embedding into wax blocks, using a 21-hour alcohol-xylene-wax embedding sequence. Blocks were sectioned at ˜4 μm thickness, sections mounted onto microscopy slides, and stained with hematoxylin and eosin (H&E). Slides were examined by a board-certified veterinary pathologist, who was blinded to the treatment groups. Lesions were scored according to the following scale. […]

measles virus polymerase = measles virus polymerase (Measles virus, UniProt P12576); conditions: found previously (45); cited from earlier work
[8] = orally 50 mg/kg b.i.d., starting 12 hours after infection, compared to vehicle-treated

Chain of measles virus polymerase (P03422 whole entry): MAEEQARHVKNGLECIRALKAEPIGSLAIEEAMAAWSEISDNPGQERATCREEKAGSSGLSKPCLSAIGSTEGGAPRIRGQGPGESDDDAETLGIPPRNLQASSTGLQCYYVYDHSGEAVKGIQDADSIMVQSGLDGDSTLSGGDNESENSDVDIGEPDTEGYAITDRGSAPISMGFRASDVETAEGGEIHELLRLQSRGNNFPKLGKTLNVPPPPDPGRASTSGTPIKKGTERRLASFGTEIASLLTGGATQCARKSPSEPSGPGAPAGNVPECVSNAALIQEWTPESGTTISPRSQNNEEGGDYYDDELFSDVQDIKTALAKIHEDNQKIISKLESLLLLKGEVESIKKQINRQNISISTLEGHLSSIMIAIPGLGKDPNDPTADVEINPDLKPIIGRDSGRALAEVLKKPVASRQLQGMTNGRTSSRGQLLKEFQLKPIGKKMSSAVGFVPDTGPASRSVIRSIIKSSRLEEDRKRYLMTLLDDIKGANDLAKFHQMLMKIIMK
Chain of measles virus polymerase (P12576 whole entry): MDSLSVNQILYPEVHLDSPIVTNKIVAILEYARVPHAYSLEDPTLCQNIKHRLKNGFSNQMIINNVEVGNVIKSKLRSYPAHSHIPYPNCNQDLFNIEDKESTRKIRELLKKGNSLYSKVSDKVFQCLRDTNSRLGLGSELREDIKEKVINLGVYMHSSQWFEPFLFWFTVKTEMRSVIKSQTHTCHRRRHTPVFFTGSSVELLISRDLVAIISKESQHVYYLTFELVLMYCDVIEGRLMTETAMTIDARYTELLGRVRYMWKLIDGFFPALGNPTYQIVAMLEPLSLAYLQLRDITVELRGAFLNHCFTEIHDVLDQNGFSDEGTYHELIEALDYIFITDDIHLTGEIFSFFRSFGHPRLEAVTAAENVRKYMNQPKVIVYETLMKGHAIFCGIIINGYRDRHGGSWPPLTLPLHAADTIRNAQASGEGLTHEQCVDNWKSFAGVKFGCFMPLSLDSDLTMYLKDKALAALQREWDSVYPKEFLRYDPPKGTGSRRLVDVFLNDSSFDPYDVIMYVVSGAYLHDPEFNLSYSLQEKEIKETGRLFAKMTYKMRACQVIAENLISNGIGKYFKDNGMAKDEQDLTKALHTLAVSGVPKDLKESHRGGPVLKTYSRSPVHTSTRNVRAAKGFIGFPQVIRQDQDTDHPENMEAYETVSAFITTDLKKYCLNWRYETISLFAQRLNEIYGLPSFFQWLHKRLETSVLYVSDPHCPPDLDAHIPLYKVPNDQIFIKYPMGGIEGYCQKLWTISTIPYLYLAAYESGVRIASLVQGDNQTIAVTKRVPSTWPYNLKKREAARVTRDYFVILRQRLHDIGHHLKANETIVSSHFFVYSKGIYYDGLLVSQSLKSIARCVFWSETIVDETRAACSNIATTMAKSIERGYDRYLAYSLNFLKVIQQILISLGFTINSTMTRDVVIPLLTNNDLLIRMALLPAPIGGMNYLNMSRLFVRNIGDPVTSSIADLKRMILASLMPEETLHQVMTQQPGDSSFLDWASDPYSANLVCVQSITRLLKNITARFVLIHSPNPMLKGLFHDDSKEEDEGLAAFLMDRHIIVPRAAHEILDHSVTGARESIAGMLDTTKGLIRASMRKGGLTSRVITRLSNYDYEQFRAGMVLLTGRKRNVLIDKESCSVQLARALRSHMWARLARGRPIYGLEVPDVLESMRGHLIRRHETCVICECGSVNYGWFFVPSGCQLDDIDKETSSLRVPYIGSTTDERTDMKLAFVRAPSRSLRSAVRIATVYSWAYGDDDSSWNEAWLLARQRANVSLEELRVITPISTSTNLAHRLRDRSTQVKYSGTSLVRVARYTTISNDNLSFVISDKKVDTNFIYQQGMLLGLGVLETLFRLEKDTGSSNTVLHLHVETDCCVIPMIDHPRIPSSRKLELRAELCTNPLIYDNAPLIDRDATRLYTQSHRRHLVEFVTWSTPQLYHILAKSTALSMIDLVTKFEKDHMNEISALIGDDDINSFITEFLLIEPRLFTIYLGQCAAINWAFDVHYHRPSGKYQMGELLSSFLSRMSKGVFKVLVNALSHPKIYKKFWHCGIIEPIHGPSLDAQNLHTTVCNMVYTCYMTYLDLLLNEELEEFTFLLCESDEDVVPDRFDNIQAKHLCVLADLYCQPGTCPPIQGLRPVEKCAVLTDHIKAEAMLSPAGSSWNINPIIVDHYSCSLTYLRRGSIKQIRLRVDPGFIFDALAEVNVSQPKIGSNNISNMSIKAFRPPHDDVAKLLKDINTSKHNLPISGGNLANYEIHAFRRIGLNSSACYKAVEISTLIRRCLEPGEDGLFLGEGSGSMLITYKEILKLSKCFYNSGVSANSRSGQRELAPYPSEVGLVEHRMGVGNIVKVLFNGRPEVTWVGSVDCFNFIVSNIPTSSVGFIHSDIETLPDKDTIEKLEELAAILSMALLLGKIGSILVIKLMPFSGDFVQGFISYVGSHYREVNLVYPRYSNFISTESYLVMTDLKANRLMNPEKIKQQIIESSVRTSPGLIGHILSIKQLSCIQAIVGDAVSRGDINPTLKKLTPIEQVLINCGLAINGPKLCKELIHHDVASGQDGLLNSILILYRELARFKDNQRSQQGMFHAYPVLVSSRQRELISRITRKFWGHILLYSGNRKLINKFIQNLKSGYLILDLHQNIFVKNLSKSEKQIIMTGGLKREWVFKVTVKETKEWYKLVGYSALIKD

Structure (SMILES)	HEp-2 C50 (second) (HEp-2 cells)	EC50 (recRSV-fireSMASh [2])	EC50 (recRSV-fireSMASh [3])	“F1” HAE C50 (second) (“F1” HAE)	“M4” HAE C50 (second) (“M4” HAE)	in vivo lung titer reduction in RSV-infected mice (recRSV-A2line19F-[mKate]; 50 mg/kg)	reduction in lung viral load (recRSV-A2line19F-[mKate]; [8])	CC50 (HEp-2 cells)	Lung viral load reduction (log10 TCID50/ml) relative to vehicle-treated (recRSV-A2line19F-[mKate])	other results
COc1ccc(Cn2c3cc(=O)n(Cc4cccc(Cl)n4)c(C)c3c(=O)n2-c2ccccn2)cc1 [AVG-233]	50 µM	0.36 µM	0.11 µM	45 µM	45 µM	50 mg/kg: −0.44 log 10				CC50 at 48 h [1]: > 45 µM; cytotoxicity (HEp-2 cells): very low cytotoxicity; EC50 (recRSV-fireSMASh L1502Q): > 100 µM; EC50 (recRSV-fireSMASh Y1631H): 2.19 µM; EC50 (recRSV-fireSMASh H1632Q): 4.42 µM; increase in EC90 [4]: > 2000 fold; EC50 (recRSV-mKate [5]; human respiratory syncytial virus, 144 h): 0.07 µM; effect on tissue organization and tight junction integrity (3D-HAE; 200 μM, continued multi-day exposure, ZO-1 immunostaining and TEER): no negative effect on tissue organization and tight junction integrity; effect on epithelium integrity (3D-HAE; basolateral 5 μM, RSV-infected, 3 d.p.i.): without detectable negative effect; cytotoxicity [6]: well-tolerated without any signs of cytotoxicity
COc1c(F)c(F)c(Cn2c3cc(=O)n(Cc4cccc(C(F)(F)F)n4)c(C)c3c(=O)n2-c2ncc(F)cc2F)c(F)c1F [AVG-388]	10 µM	0.13 µM	0.15 µM	10 µM	10 µM	50 mg/kg: −1.3 log 10	1.3 (±0.25) log 10 TCID50/ml			CC50 at 48 h [1]: > 45 µM; cytotoxicity (HEp-2 cells): very low cytotoxicity; EC50 (recRSV-fireSMASh L1502Q): > 100 µM; EC50 (recRSV-fireSMASh Y1631H): 2.72 µM; EC50 (recRSV-fireSMASh H1632Q): 4.81 µM; disease progression to viral pneumonia (histopathology) (recRSV-mKate [7]): prevented disease progression to viral pneumonia; vasculitis and perivascular cuffing (histopathology) (recRSV-mKate [7]): Only one animal of the AVG-388 group showed mild vasculitis and perivascular cuffing; in vivo lung titer reduction in RSV-infected mice (recRSV-A2line19F-[mKate]; 150 mg/kg): 150 mg/kg: −1.9 log 10; adverse effects (bodyweight and temperature) (recRSV-A2line19F-[mKate]; orally 150 mg/kg b.i.d.): without any signs of adverse effects; reduction in lung viral load (recRSV-A2line19F-[mKate]; orally 150 mg/kg b.i.d.): 1.9 (±0.23) log 10 TCID50/ml
COc1c(F)c(F)c(Cn2c3cc(=O)n(Cc4cccc(Cl)n4)c(C)c3c(=O)n2-c2ccccn2)c(F)c1F [AVG-389]	5 µM	0.16 µM	0.07 µM	45 µM	45 µM					
COc1c(F)c(F)c(Cn2c3cc(=O)n(Cc4cccc(Cl)n4)c(C)c3c(=O)n2-c2ncc(F)cc2F)c(F)c1F [AVG-390]	45 µM	0.39 µM	0.25 µM	45 µM	45 µM	50 mg/kg: −0.50 log 10	slightly lower antiviral effect	> 45 µM	−0.5 log10 TCID50/ml	
COc1ccc(Cn2c3cc(=O)n(Cc4cccc(Cl)n4)c(C)c3c(=O)n2-c2ncc(F)cc2F)cc1 [AVG-391]	45 µM	0.35 µM	0.3 µM	45 µM	45 µM					
COc1ccc(Cn2c3cc(=O)n(Cc4cccc(C(F)(F)F)n4)c(C)c3c(=O)n2-c2ncc(F)cc2F)cc1 [AVG-392]	45 µM	0.92 µM	0.53 µM	45 µM	45 µM					
COc1c(F)c(F)c(Cn2c3cc(=O)n(Cc4cccc(C(F)(F)F)n4)c(C)c3c(=O)n2-c2ccccn2)c(F)c1F [AVG-435]	5 µM					50 mg/kg: −0.44 log 10	did not observe as much benefit	> 5 µM	−0.44 log10 TCID50/ml	
COc1ccc(Cn2c3cc(=O)n(Cc4cccc(C(F)(F)F)n4)c(C)c3c(=O)n2-c2ccccn2)cc1 [AVG-436]	5 µM					50 mg/kg: −0.89 log 10	0.89 (±0.14) log 10 TCID50/ml	> 5 µM	−0.89 log10 TCID50/ml	
Cc1c2c(=O)n(-c3ccccn3)n(Cc3c(Cl)cccc3Cl)c2cc(=O)n1Cc1cccc(C(F)(F)F)n1 [AVG-445]	5 µM					50 mg/kg: −1.1 log 10	1.1 (±0.16) log 10 TCID50/ml	> 5 µM	−1.1 log10 TCID50/ml	in vivo lung titer reduction in RSV-infected mice (recRSV-A2line19F-[mKate]; 100 mg/kg): 100 mg/kg: −1.9 log 10
Cc1c2c(=O)n(-c3ccccn3)n(Cc3c(Cl)cccc3Cl)c2cc(=O)n1Cc1cccc(C(F)(F)F)c1 [AVG-446]						50 mg/kg: −0.61 log 10				CC50 at 48 h [1]: > 5 µM; in vivo lung titer reduction in RSV-infected mice (recRSV-A2line19F-[mKate]; 100 mg/kg): 100 mg/kg: −1.2 log 10
Cn1nc(C(F)(F)F)cc1C(=O)Nc1ccc(S(=O)(=O)N2CCCC[C@H]2CCN2CCOCC2)cc1 [ERDRP-0519]										phosphodiester bond formation (measles virus polymerase): completely blocks all phosphodiesterbond formation
O=c1nc(NO)ccn1[C@@H]1O[C@H](CO)[C@@H](O)[C@H]1O [NHC, reference compound]										EC50 (recRSV-mKate [5]): 0.05 µM
